Like-named read-outs stand apart in the source and are kept apart here.
Columns and labels:
[1] = Cytotoxicity of compounds, MTT test, HeLa; type: cell-based; settings: human, HeLa cells, compound alone
Description: (§1) The cytotoxicity of the compounds to HeLa (human cervical cancer) and HEK293A (human embryonic kidney) cell lines was determined using standard colorimetric MTT-test. Cells were seeded in 96-well plates (5000 cells per well) and cultured in DMEM medium (Invitrogen, Carlsbad, CA, USA) supplemented with 10% fetal bovine serum (FBS) (Invitrogen), penicillin (100 units/mL), and streptomycin (100 μg/mL) at 37 °C and 5% CO2 in a humid atmosphere. Control wells contained 1% DMSO. At 30–50% confluence, the tested compounds were added to the medium. To determine the cytotoxicity of Tdp1 inhibitors, the cells were allowed to attach for 24 h and were treated with compounds with concentrations ranging from 1 to 100 μM for 72 h at 37 °C. All measurements were repeated three times.

TDP1 [2] = biological target: T1, TDP1 (Homo sapiens, UniProt Q9NUW8); assay: Real-time fluorescence detection of TDP1 activity (FAM/BHQ1 oligonucleotide biosensor); type: biochemical
T1 construct: made in house
T1 sequence (Q9NUW8 whole entry): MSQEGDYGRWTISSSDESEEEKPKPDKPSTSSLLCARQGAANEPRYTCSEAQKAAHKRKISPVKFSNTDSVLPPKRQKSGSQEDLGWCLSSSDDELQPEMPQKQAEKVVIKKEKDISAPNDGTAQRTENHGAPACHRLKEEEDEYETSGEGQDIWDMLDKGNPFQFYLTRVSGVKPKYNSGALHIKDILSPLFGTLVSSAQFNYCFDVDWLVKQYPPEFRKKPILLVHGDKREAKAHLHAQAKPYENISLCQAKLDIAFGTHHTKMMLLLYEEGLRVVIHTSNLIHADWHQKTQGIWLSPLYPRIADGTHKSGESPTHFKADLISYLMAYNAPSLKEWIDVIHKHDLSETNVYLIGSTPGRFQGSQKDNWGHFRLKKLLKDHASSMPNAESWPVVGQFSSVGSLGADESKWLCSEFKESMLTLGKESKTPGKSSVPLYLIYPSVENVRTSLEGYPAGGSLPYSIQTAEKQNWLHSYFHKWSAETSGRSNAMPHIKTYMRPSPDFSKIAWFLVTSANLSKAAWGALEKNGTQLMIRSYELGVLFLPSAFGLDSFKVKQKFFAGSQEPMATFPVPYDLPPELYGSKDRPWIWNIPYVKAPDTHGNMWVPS
From the text: To determine the inhibitory properties of the new compounds against TDP1 we used a previously designed real-time oligonucleotide biosensor with 5(6)-carboxyfluorescein (FAM) at the 5′ end and fluorophore quencher BHQ1 (Black Hole Quencher-1) at the 3′-end.
The biosensor, 16-mer DNA oligonucleotide (5′-[FAM] AAC GTC AGGGTC TTC C [BHQ]-3′) was synthesized in the Laboratory of Nucleic Acid Chemistry at the Institute of Chemical Biology and Fundamental Medicine (Novosibirsk, Russia). Real-time fluorescence detection of TDP1 enzyme activity was carried out as described. The recombinant TDP1 was purified as described, using plasmid pET 16B-TDP1, kindly provided by Dr. K.W. Caldecott (University of Sussex, Brighton, UK). To the reaction mixture (200 μL) containing 50 nM oligonucleotide in buffer (50 mM Tris-HCl, pH 8.0, 50 mM NaCl, and 7 mM β-mercaptoethanol), varied concentrations of the tested compounds and purified TDP1 in a final concentration of 1.5 nM were added.
Fluorescence intensity was measured (Ex485/Em520 nm) using POLARstar OPTIMA fluorimeter (BMG LABTECH, GmbH, Ortenberg, Germany) every 1 min for 7 min. The half maximal inhibitory concentrations (IC50) were determined using a six-point concentration response curve and calculated using MARS Data Analysis 2.0 (BMG LABTECH). At least three independent experiments were carried out to obtain the IC50 values.

[3] = Cytotoxicity of compounds, MTT test, HEK293A; type: cell-based; settings: human, HEK293A cells, compound alone, read-out: CC50 HEK 293A
Description: as §1

HEK293A cells = assay: Effect of compounds on topotecan cytotoxicity, MTT test, HEK293A; type: cell-based, human; settings: 10 µM compound, result in words
Description: as §1
To study the effect of the compounds on the cytotoxicity of topotecan, an aqueous solution of topotecan was used at concentrations from 0.2 to 2 μM for HeLa cells and from 0.05 to 0.5 μM for HEK293A cells against the background of 10 μM of the compounds. Cells treated with compounds alone without topotecan were used as controls.

TDP1 [4] = biological target: T1, TDP1; design: method as in PMID 27658793, PMID 31878088; settings: previously found 7-hydroxycoumarin derivatives; cited from earlier work
[5] = Table 1, recombinant TDP1 1.5 nM, 50 nM oligonucleotide, read-out: TDP1 inhibitory activities (IC50)
[6] = Table 2, TDP1 IC50, partly rounded, read-out: IC50

SMILES | CC50 at 72 h [1] [µM] | IC50 (TDP1 [2]; [5]) [µM] | IC50 (TDP1 [2]; [6]) [µM] | melting point [°C] | CC50 at 72 h [3] [µM] | Effect on the cytotoxic effect of topotecan, HEK293A (HEK293A cells) | IC50 (TDP1 [4]) [µM]
Cc1c(-c2ccc(F)cc2)c(=O)oc2cccc(OCCC(C)CCCC(C)C)c12 (centres unmarked) [33b, 5-(3,7-Dimethyloctyloxy)-3-(4-fluorophenyl)-4-methyl-2H-chromen-2-one] | > 100 | 0.29 ± 0.07 | 0.29 ± 0.07 | 114 | 40 ± 10 | – | –
Cc1c(-c2ccc(F)cc2)c(=O)oc2cccc(OCC3=CC[C@H]4C[C@@H]3C4(C)C)c12 [33c, 5-(((1R,5S)-6,6-Dimethylbicyclo[3.1.1]hept-2-en-2-yl)methoxy)-3-(4-fluorophenyl)-4-methyl-2H-chromen-2-one] | 89 ± 7 | 5.25 ± 0.04 | 5.25 ± 0.04 | 152 | > 100 | – | –
Cc1c(-c2ccc(F)cc2)c(=O)oc2cccc(OCCC3=CC[C@H]4C[C@@H]3C4(C)C)c12 [33d, 5-(2-((1R,5S)-6,6-Dimethylbicyclo[3.1.1]hept-2-en-2-yl)ethoxy)-3-(4-fluorophenyl)-4-methyl-2H-chromen-2-one] | – | 2.51 ± 0.14 | – | 114 | – | – | –
CC(C)=CCC/C(C)=C/COc1cccc2oc(=O)c(-c3ccc(Br)cc3)c(C)c12 [34a, (E)-3-(4-Bromophenyl)-5-(3,7-dimethylocta-2,6-dienyloxy)-4-methyl-2H-chromen-2-one] | 32 ± 3 | 1.06 ± 0.06 | 1.06 ± 0.06 | 93 | 53 ± 1.2 | – | –
Cc1c(-c2ccc(Br)cc2)c(=O)oc2cccc(OCCC(C)CCCC(C)C)c12 (centres unmarked) [34b, 3-(4-Bromophenyl)-5-(3,7-dimethyloctyloxy)-4-methyl-2H-chromen-2-one] | – | – | – | 137 | – | – | –
Cc1c(-c2ccc(Br)cc2)c(=O)oc2cccc(OCC3=CC[C@H]4C[C@@H]3C4(C)C)c12 [34c, 3-(4-Bromophenyl)-5-(((1R,5S)-6,6-dimethylbicyclo[3.1.1]hept-2-en-2-yl)methoxy)-4-methyl-2H-chromen-2-one] | > 100 | 0.9 ± 0.07 | 0.9 ± 0.07 | 148 | > 100 | protect cells from the cytotoxic effects of topotecan | –
COc1ccc(-c2c(C)c3c(OC/C=C(\C)CCC=C(C)C)cccc3oc2=O)cc1 [35a, (E)-5-(3,7-Dimethylocta-2,6-dienyloxy)-3-(4-methoxyphenyl)-4-methyl-2H-chromen-2-one] | > 100 | 6.63 ± 1.12 | 7 ± 1 | 85 | > 100 | – | –
COc1ccc(-c2c(C)c3c(OCCC(C)CCCC(C)C)cccc3oc2=O)cc1 (centres unmarked) [35b, 5-(3,7-Dimethyloctyloxy)-3-(4-methoxyphenyl)-4-methyl-2H-chromen-2-one] | 90.7 ± 0.5 | 0.37 ± 0.16 | 0.4 ± 0.2 | – | > 100 | – | –
COc1ccc(-c2c(C)c3c(OCC4=CC[C@H]5C[C@@H]4C5(C)C)cccc3oc2=O)cc1 [35c, 5-(((1R,5S)-6,6-Dimethylbicyclo[3.1.1]hept-2-en-2-yl)methoxy)-3-(4-methoxyphenyl)-4-methyl-2H-chromen-2-one] | 73 ± 6 | 1.14 ± 0.15 | 1.1 ± 0.2 | – | > 100 | – | –
CC(C)=CCC/C(C)=C/COc1cccc2oc(=O)c(-c3ccccc3Br)c(C)c12 [36a, (E)-3-(2-Bromophenyl)-5-(3,7-dimethylocta-2,6-dienyloxy)-4-methyl-2H-chromen-2-one] | 49 ± 2 | 0.85 ± 0.15 | 0.9 ± 0.2 | – | 59 ± 6 | – | –
Cc1c(-c2ccccc2Br)c(=O)oc2cccc(OCCC(C)CCCC(C)C)c12 (centres unmarked) [36b, 3-(2-Bromophenyl)-5-(3,7-dimethyloctyloxy)-4-methyl-2H-chromen-2-one] | – | ≥ 50 | – | 73 | – | – | –
Cc1c(-c2ccccc2Br)c(=O)oc2cccc(OCC3=CC[C@H]4C[C@@H]3C4(C)C)c12 [36c, 3-(2-Bromophenyl)-5-(((1R,5S)-6,6-dimethylbicyclo[3.1.1]hept-2-en-2-yl)methoxy)-4-methyl-2H-chromen-2-one] | 73.5 ± 0.6 | 4.36 ± 1.14 | 4.36 ± 1.14 | 157 | > 100 | – | –
COc1ccccc1-c1c(C)c2c(OC/C=C(\C)CCC=C(C)C)cccc2oc1=O [37a, (E)-5-(3,7-Dimethylocta-2,6-dienyloxy)-3-(2-methoxyphenyl)-4-methyl-2H-chromen-2-one] | 18 ± 10 | 1.22 ± 0.04 | 1.22 ± 0.04 | 99 | 16 ± 0.7 | – | –
COc1ccccc1-c1c(C)c2c(OCCC(C)CCCC(C)C)cccc2oc1=O (centres unmarked) [37b, 5-(3,7-Dimethyloctyloxy)-3-(2-methoxyphenyl)-4-methyl-2H-chromen-2-one] | – | 2.6 ± 0.35 | – | 114 | – | – | –
COc1ccccc1-c1c(C)c2c(OCC3=CC[C@H]4C[C@@H]3C4(C)C)cccc2oc1=O [37c, 5-(((1R,5S)-6,6-Dimethylbicyclo[3.1.1]hept-2-en-2-yl)methoxy)-3-(2-methoxyphenyl)-4-methyl-2H-chromen-2-one] | 72 ± 2 | 0.79 ± 0.06 | 0.79 ± 0.06 | 164 | 52.3 ± 0.9 | protect cells from the cytotoxic effects of topotecan | –
COc1ccccc1-c1c(C)c2c(OCCC3=CC[C@H]4C[C@@H]3C4(C)C)cccc2oc1=O [37d, 5-(2-((1R,5S)-6,6-Dimethylbicyclo[3.1.1]hept-2-en-2-yl)ethoxy)-3-(2-methoxyphenyl)-4-methyl-2H-chromen-2-one] | 48 ± 4 | 3.93 ± 0.77 | 3.9 ± 0.8 | 135 | 87 ± 7 | – | –
CC(C)=CCC/C(C)=C/COc1cccc2oc(=O)c(-c3ccccc3[N+](=O)[O-])c(C)c12 [38a, (E)-5-(3,7-Dimethylocta-2,6-dienyloxy)-4-methyl-3-(2-nitrophenyl)-2H-chromen-2-one] | > 100 | 1.03 ± 0.08 | 1.03 ± 0.08 | 73 | > 100 | protect cells from the cytotoxic effects of topotecan | –
Cc1c(-c2ccccc2[N+](=O)[O-])c(=O)oc2cccc(OCCC(C)CCCC(C)C)c12 (centres unmarked) [38b, 5-(3,7-Dimethyloctyloxy)-4-methyl-3-(2-nitrophenyl)-2H-chromen-2-one] | – | 2.18 ± 0.13 | – | 61 | – | – | –
Cc1c(-c2ccccc2[N+](=O)[O-])c(=O)oc2cccc(OCC3=CC[C@H]4C[C@@H]3C4(C)C)c12 [38c, 5-(((1R,5S)-6,6-Dimethylbicyclo[3.1.1]hept-2-en-2-yl)methoxy)-4-methyl-3-(2-nitrophenyl)-2H-chromen-2-one] | 83 ± 3 | 3.83 ± 0.29 | 3.8 ± 0.3 | – | 32 ± 13 | – | –
CC1(C)C2CC=C(COc3ccc4c5c(c(=O)oc4c3)CCC5)C1C2 (centres unmarked) [compound 11] | – | – | – | – | – | – | 0.7
CC(C)=CCC/C(C)=C/COc1ccc2c(-c3ccc(F)cc3)cc(=O)oc2c1 [compound 12] | – | – | – | – | – | – | 0.6

Reference: PMC10253161, “New 5-Hydroxycoumarin-Based Tyrosyl-DNA Phosphodiesterase I Inhibitors Sensitize Tumor Cell Line to Topotecan” (International Journal of Molecular Sciences, 2023)
